According to US20080032340A1, “Peptide motifs for binding avidin or neutravidin” (University of Arizona, priority 2006, published 2008):
Where two headings read alike, the source gives them in different places. Where a SMILES comes first, the peptide text is derived from it. Bridges are numbered along the chain shown (N, C = ends).

What was measured:
[1] = target: T1, streptavidin (Streptomyces avidinii, UniProt P22629); experiment: HABA-competitive binding determination, streptavidin-HABA complex
T1 construct: purchased Pierce
T1 sequence (P22629 25-183): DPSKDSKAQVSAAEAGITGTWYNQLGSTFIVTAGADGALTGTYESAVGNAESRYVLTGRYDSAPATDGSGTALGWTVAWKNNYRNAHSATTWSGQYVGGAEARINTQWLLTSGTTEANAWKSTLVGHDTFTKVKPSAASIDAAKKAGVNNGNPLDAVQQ
Procedure: (§1) After 60 minutes, the absorbance of the complex was monitored at 500 nm. To calculate the IC50s of the selected peptides, the average of three separate trials were fitted to the Hill equation, [formula] where [L] is the total ligand concentration, [L]F is free ligand concentration, [L]B is bound ligand concentration and nH is the Hill coefficient (Hill, The possible effects of the aggregation of the molecules of haemoglobin on its dissociation curves. J Physiol 1910; 40:4-8). […] Best fit equations were calculated using KaleidaGraph (Synergy Software).

[2] = target: T2, avidin (Gallus gallus, UniProt P02701); experiment: HABA-competitive binding determination, avidin-HABA complex; set-up: purchased Pierce; species or system chicken; conditions: linear (uncyclized) peptides; read-out: dissociation constant, avidin, linear peptides
T2 sequence (P02701 25-152): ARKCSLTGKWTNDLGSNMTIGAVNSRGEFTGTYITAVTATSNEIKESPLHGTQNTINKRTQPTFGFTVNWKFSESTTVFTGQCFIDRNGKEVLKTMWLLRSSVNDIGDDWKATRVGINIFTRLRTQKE
Procedure: as §1

[3] = target: T3, NeutrAvidin (Gallus gallus, UniProt P02701); experiment: HABA-competitive binding determination, HABA-NeutrAvidin complex; conditions: linear (uncyclized) peptides; read-out: dissociation constant, Neutravidin, linear peptides
T3 construct: purchased Pierce
T3 sequence (P02701 25-152): as above
Procedure: as §1

[4] = target: T2, avidin; conditions: pH of 7, literature value; read-out: Kd HABA-avidin; cited from earlier work
[5] = target: T3, NeutrAvidin; experiment: HABA saturation of NeutrAvidin; format: binding; conditions: calculated value, supplementary material; read-out: dissociation constant of the HABA-NeutrAvidin complex
Procedure: as §1

[6] = target: T3, NeutrAvidin; experiment: Phage-displayed cyclic peptide selection against NeutrAvidin (clone sequencing); format: binding
Procedure: XL1-Blue E. coli containing the phagemid library vector were grown from glycerol stocks in 5 mL of 2×YT media with glucose and ampicillin selection at 37° C. Titered M13KO7 helper phage (5×10^9 pfu) was added when the culture reached an OD600 of 0.8 and was incubated for 1 hour. The culture was then pelleted via centrifugation, the cells were resuspended in 2×YT with ampicillin and kanamycin, and allowed to grow overnight. After 10 hours of incubation, the culture was again pelleted by centrifugation and the supernatant was filtered through a 0.45 μm sterile filter to remove trace E. coli. The phage was isolated from the supernatant by PEG (polyethylene glycol) precipitation. 1 mL of 20% PEG in 2.5 M NaCl was added to the 5 mL of filtered media. The resulting precipitate was isolated by centrifugation at 18,000 rcf. The phage pellet was resuspended in 5 mL of Tris Buffer A (20 mM Tris-HCl, 150 mM NaCl, and 0.05% Tween 20 at pH=7.4). The phage was then re-precipitated with 1 mL PEG/NaCl, isolated via centrifugation, and resuspended in 1 mL of Tris Buffer A.
100 μL of the phage solution was then exposed to a well of a NeutrAvidin coated polystyrene plate (Pierce) that had been previously rinsed with Tris Buffer A. After 1 hour of incubation, the phage solution was discarded and the well was washed six times for 10 minutes each with 200 μL of Tris Buffer A. Bound phage was eluted with 200 μL of 0.2 M glycine (pH=2.0) by incubation for 10 minutes, followed by neutralization with 40 μL of 2 M Tris base. The input phage and eluted phage were then used to infect two 5 mL tetracycline-selected cultures of XL1 Blue E. coli (OD600=0.8). After 1 hour, the cells were pelleted and resuspended in 5 mL of 2×YT with ampicillin and glucose. […]
Phage display selection and synthesis of NeutrAvidin binding peptides. […] The library was expressed as a fusion to the gene III protein of M13 filamentous bacteriophage, C-terminal to the periplasmic signaling sequence and N-terminal to a peptide linker and the rest of the gene III protein (see supplementary material). […]

Compound | Kd [1] | Kd [2] | Kd [3] | also measured
CC(C)C[C@@H]1NC(=O)[C@H](CC(=O)O)NC(=O)[C@@H](N)CSSC[C@@H](C(=O)NCC(N)=O)NC(=O)[C@H](Cc2c[nH]c3ccccc23)NC(=O)[C@@H]2CCCN2C(=O)[C@H](CO)NC(=O)[C@H](C)NC1=O [DLASPW] (H-CDLASPWCG-NH2; disulfide 1-8; N-terminus assumed) | > 5000 µM | – | – | –
C[C@@H]1NC(=O)[C@H](CCCNC(=N)N)NC(=O)[C@H](CC(=O)O)NC(=O)[C@@H](N)CSSC[C@@H](C(=O)NCC(N)=O)NC(=O)[C@H](Cc2ccc(O)cc2)NC(=O)[C@@H]2CCCN2C(=O)[C@H](CO)NC1=O [DRASPY] (H-CDRASPYCG-NH2; disulfide 1-8) | > 5000 µM | < 500 µM | < 500 µM | –
C[C@@H]1NC(=O)[C@H](CCCNC(=N)N)NC(=O)[C@H](CC(=O)O)NC(=O)[C@@H](N)CSSC[C@@H](C(=O)NCC(N)=O)NC(=O)[C@H](Cc2ccc(O)cc2)NC(=O)[C@@H]2CCCN2C(=O)[C@H]([C@@H](C)O)NC1=O [DRATPY] (H-CDRATPYCG-NH2; disulfide 1-8) | > 5000 µM | < 500 µM | < 500 µM | –
O=C(O)c1ccccc1N=Nc1ccc(O)cc1 [HABA, 4′-hydroxyazobenzene-2-carboxylic acid] | – | – | – | Kd [4]: 7 µM; Kd [5]: 15 µM
CDRASPWC [not synthesized] | – | – | – | % of clones, Round 3 ([6]; round 3, 15 clones sequenced): 20%; % of clones, Round 4 ([6]; round 4, 26 clones sequenced): 8%; % of clones, Round 5 ([6]; round 5, 40 clones sequenced): 5%
